The results in this text go back to patent publication US20090298820A1, “3-SUBSTITUTED-1H-PYRROLO[2,3-B]PYRIDINE AND 3-SUBSTITUTED-1H-PYRROLO[3,2-B]PYRIDINE COMPOUNDS, THEIR USE AS MTOR KINASE AND PI3 KINASE INHIBITORS, AND THEIR SYNTHESES” (Wyeth, priority 2008, published 2009).

One data set has as its target mTOR (Homo sapiens, UniProt P42345). The data set can be described thus: mTOR enzyme assay (DELFIA format, His6-S6K substrate). Format: biochemical. Conditions: read-out: mTOR Kinase Median IC50.
The next data set has as its target PI3Kα (Homo sapiens, UniProt P42336). In words: PI3K-alpha fluorescence polarization assay. Format: biochemical. As to conditions: read-out: PI3Kα Median IC50. For orientation: Fluorescence polarisation rises when a labelled molecule tumbles more slowly, as on binding a larger partner.
Another data set addresses PI3Kγ (Homo sapiens, UniProt P48736). In words: PI3K-gamma fluorescence polarization assay. Format: biochemical. Conditions: read-out: PI3Kγ Median IC50.

Sequence of PI3Kα (P42336 whole entry, species assumed): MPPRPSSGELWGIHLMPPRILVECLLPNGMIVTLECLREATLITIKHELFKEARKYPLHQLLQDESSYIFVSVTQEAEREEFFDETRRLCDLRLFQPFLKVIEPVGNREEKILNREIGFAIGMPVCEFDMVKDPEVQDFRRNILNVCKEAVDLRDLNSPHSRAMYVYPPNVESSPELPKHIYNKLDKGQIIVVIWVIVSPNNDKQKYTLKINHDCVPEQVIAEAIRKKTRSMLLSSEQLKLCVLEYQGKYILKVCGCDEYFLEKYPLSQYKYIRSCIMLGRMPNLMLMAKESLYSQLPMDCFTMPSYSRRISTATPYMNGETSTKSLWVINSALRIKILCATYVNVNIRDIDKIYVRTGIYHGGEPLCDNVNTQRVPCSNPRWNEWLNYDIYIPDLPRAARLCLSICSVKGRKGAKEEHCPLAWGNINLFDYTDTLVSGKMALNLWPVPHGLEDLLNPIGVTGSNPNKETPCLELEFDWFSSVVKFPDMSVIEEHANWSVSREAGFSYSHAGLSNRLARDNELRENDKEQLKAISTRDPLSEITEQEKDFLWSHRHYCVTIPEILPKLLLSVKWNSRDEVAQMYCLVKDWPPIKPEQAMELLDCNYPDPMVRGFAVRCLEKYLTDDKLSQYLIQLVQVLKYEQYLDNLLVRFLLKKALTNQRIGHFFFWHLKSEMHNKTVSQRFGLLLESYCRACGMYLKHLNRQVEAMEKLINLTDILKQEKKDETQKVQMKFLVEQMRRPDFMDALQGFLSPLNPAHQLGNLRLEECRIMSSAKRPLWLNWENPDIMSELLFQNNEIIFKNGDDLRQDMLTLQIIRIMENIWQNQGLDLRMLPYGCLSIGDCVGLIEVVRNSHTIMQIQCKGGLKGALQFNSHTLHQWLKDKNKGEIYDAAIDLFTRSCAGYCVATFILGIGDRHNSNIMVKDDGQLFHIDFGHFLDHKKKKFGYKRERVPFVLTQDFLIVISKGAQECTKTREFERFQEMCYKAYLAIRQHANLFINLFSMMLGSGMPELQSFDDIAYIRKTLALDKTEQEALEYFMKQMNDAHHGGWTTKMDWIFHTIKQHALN
Sequence of PI3Kα (P27986 whole entry partner, species assumed): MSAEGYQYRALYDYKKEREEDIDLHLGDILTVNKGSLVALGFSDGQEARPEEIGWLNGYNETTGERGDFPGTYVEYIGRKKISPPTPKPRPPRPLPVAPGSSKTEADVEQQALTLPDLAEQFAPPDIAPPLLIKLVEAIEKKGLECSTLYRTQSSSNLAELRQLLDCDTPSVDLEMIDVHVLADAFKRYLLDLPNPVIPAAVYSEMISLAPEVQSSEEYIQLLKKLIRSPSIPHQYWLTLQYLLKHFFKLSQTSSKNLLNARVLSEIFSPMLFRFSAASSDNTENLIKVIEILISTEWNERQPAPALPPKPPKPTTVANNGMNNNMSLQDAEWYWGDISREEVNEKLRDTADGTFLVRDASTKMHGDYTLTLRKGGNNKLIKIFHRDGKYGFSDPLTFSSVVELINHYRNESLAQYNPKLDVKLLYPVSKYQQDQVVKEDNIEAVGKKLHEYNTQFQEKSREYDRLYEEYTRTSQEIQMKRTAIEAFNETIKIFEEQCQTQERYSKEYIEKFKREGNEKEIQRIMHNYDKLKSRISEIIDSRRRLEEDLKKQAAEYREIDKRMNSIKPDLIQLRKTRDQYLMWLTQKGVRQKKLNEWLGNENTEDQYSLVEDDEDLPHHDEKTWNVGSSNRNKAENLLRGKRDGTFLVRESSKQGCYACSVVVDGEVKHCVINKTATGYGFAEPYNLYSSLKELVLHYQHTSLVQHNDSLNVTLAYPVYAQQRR
Sequence of PI3Kγ (P48736 whole entry, species assumed): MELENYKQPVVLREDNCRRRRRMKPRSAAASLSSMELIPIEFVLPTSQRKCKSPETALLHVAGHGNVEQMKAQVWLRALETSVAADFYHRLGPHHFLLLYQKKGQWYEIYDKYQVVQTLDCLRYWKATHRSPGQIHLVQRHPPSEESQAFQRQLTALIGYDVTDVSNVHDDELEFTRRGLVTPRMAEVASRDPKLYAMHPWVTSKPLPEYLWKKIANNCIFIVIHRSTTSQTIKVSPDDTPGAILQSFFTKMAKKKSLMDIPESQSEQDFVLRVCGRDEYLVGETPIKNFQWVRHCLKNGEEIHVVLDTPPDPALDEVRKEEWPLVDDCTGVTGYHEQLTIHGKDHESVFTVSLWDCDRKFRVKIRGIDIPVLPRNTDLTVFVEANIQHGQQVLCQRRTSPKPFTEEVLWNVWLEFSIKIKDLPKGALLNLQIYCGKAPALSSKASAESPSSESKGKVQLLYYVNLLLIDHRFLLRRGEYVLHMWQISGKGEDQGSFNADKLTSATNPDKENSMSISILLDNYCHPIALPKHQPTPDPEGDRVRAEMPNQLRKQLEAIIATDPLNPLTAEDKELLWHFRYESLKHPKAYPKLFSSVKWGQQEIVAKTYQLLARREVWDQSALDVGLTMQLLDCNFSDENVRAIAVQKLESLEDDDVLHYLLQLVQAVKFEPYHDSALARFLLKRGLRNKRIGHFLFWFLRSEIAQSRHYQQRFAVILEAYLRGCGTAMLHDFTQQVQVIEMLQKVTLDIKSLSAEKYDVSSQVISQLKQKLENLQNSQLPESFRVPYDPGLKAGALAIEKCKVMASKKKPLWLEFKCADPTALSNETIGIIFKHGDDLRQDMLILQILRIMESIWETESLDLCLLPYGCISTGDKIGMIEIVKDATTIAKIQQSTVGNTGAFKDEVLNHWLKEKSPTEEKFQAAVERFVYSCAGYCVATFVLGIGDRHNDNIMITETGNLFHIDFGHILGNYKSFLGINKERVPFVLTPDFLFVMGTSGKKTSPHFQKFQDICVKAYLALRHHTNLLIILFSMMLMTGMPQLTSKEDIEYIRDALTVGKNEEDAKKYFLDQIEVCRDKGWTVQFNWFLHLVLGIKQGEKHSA

On to `CN(C)C(=O)C1CCN(c2ccnc3c2c(/C=C2\Oc4ccc(NC(=O)Nc5cccnc5)cc4C2=O)cn3C)CC1` [Compound 189, N,N-dimethyl-1-{1-methyl-3-[(Z)-{3-oxo-5-[(pyridin-3-ylcarbamoyl)amino]-1-benzofuran-2(3H)-ylidene}methyl]-1H-pyrrolo[2,3-b]pyridin-4-yl}piperidine-4-carboxamide], for which the melting point (commonly the temperature of the solid-liquid transition) was 165 to 175 °C (dec.). The IC50 – broadly, the concentration at which inhibition is half-maximal – on mTOR was 0.0105 µM. Moreover, the IC50 on PI3Kα is 2.03 µM. In addition, at PI3Kγ, the concentration for half-maximal inhibition (IC50) is 2.04 µM.
The matching figures for `CN(C)CCNC(=O)Nc1ccc2c(c1)C(=O)/C(=C/c1cn(C)c3nccc(N4CC5CCC(C4)O5)c13)O2` [Compound 193, 1-[2-(dimethylamino)ethyl]-3-[(2Z)-2-{[1-methyl-4-(8-oxa-3-azabicyclo[3.2.1]oct-3-yl)-1H-pyrrolo[2,3-b]pyridin-3-yl]methylidene}-3-oxo-2,3-dihydro-1-benzofuran-5-yl]urea]: 175 to 180 °C, 0.0056 µM, 0.024 µM and 0.045 µM.
In the case of `CN1CCN(CCNC(=O)Nc2ccc3c(c2)C(=O)/C(=C/c2cn(C)c4nccc(N5CC6CCC(C5)O6)c24)O3)CC1` [Compound 194, 1-[(2Z)-2-{[1-methyl-4-(8-oxa-3-azabicyclo[3.2.1]oct-3-yl)-1H-pyrrolo[2,3-b]pyridin-3-yl]methylidene}-3-oxo-2,3-dihydro-1-benzofuran-5-yl]-3-[2-(4-methylpiperazin-1-yl)ethyl]urea], the melting point was 170 to 172 °C. Further, on mTOR, the IC50 amounted to 0.034 µM. Moreover, the IC50 on PI3Kα worked out at 0.237 µM. The concentration for half-maximal inhibition (IC50) at PI3Kγ stood at 0.472 µM.
The corresponding values for `Cn1cc(/C=C2\Oc3ccc(C(=O)O)cc3C2=O)c2c(N3CC4CCC(C3)O4)ccnc21` [Compound 197, (2Z)-2-{[1-methyl-4-(8-oxa-3-azabicyclo[3.2.1]oct-3-yl)-1H-pyrrolo[2,3-b]pyridin-3-yl]methylidene}-3-oxo-2,3-dihydro-1-benzofuran-5-carboxylic acid] are 285 to 289 °C, 0.13 µM, 2.37 µM and 3 µM.
The matching figures for `Cn1cc(/C=C2\Oc3ccc(NC(=O)Nc4ccncc4)cc3C2=O)c2c(N3CC4CCC(C3)O4)ccnc21` [Compound 198, 1-[(2Z)-2-{[1-methyl-4-(8-oxa-3-azabicyclo[3.2.1]oct-3-yl)-1H-pyrrolo[2,3-b]pyridin-3-yl]methylidene}-3-oxo-2,3-dihydro-1-benzofuran-5-yl]-3-pyridin-4-ylurea]: 257 to 259 °C, 0.0195 µM, 0.293 µM and 0.249 µM.
In the case of `Cn1cc(/C=C2\Oc3ccc(NC(=O)NCCCCl)cc3C2=O)c2c(N3CC4CCC(C3)O4)ccnc21` [Compound 240, 1-(3-chloropropyl)-3-[(2Z)-2-{[1-methyl-4-(8-oxa-3-azabicyclo[3.2.1]oct-3-yl)-1H-pyrrolo[2,3-b]pyridin-3-yl]methylene}-3-oxo-2,3-dihydro-1-benzofuran-5-yl]urea], the melting point lay in the range of 234 to 241 °C. The IC50 on mTOR was found to be 0.105 µM. The IC50 on PI3Kα stood at 1.06 µM. Besides, the concentration for half-maximal inhibition (IC50) on PI3Kγ came to 2.18 µM.
The corresponding values for `CN(C)CCCNC(=O)Nc1ccc2c(c1)C(=O)/C(=C/c1cn(C)c3nccc(N4CC5CCC(C4)O5)c13)O2` [Compound 241, 1-[3-(dimethylamino)propyl]-3-[(2Z)-2-{[1-methyl-4-(8-oxa-3-azabicyclo[3.2.1]oct-3-yl)-1H-pyrrolo[2,3-b]pyridin-3-yl]methylene}-3-oxo-2,3-dihydro-1-benzofuran-5-yl]urea] are 261 to 263 °C, 0.0105 µM, 0.053 µM and 0.034 µM.
The corresponding values for `COCCN(C)CCCNC(=O)Nc1ccc2c(c1)C(=O)/C(=C/c1cn(C)c3nccc(N4CC5CCC(C4)O5)c13)O2` [Compound 242, 1-{3-[(2-methoxyethyl)(methyl)amino]propyl}-3-[(2Z)-2-{[1-methyl-4-(8-oxa-3-azabicyclo[3.2.1]oct-3-yl)-1H-pyrrolo[2,3-b]pyridin-3-yl]methylene}-3-oxo-2,3-dihydro-1-benzofuran-5-yl]urea] are 158 to 163 °C, 0.0645 µM, 0.243 µM and 0.781 µM.
`COCCN(C)C(=O)C1CCN(c2ccnc3c2c(/C=C2\Oc4ccc(NC(=O)Nc5cccnc5)cc4C2=O)cn3C)CC1` [Compound 246, N-(2-methoxyethyl)-N-methyl-1-{1-methyl-3-[(Z)-{3-oxo-5-[(pyridin-3-ylcarbamoyl)amino]-1-benzofuran-2(3H)-ylidene}methyl]-1H-pyrrolo[2,3-b]pyridin-4-yl}piperidine-4-carboxamide]: the melting point is 282 to 285 °C. Moreover, the IC50 at mTOR was 0.0305 µM. Besides, the half-maximal inhibitory concentration (IC50) at PI3Kα was found to be 1.43 µM. Moreover, the concentration for half-maximal inhibition (IC50) on PI3Kγ is 1.54 µM.
The matching figures for `Cn1cc(/C=C2\Oc3ccc(NC(=O)Nc4cccnc4)cc3C2=O)c2c(N3CCC(C(=O)N4CC5CCC(C4)O5)CC3)ccnc21` [Compound 250, 1-[(2Z)-2-({1-methyl-4-[4-(8-oxa-3-azabicyclo[3.2.1]oct-3-ylcarbonyl)piperidin-1-yl]-1H-pyrrolo[2,3-b]pyridin-3-yl}methylene)-3-oxo-2,3-dihydro-1-benzofuran-5-yl]-3-pyridin-3-ylurea]: 260 to 265 °C, 0.017 µM, 1.68 µM and 2.82 µM.
The corresponding values for `COCCN(CCOC)C(=O)C1CCN(c2ccnc3c2c(/C=C2\Oc4ccc(NC(=O)Nc5cccnc5)cc4C2=O)cn3C)CC1` [Compound 251, N,N-bis(2-methoxyethyl)-1-{1-methyl-3-[(Z)-{3-oxo-5-[(pyridin-3-ylcarbamoyl)amino]-1-benzofuran-2(3H)-ylidene}methyl]-1H-pyrrolo[2,3-b]pyridin-4-yl}piperidine-4-carboxamide] are 206 to 210 °C, 0.016 µM, 4.05 µM and 5.58 µM.
`CN(Cc1ccncc1)C(=O)C1CCN(c2ccnc3c2c(/C=C2\Oc4ccc(NC(=O)Nc5cccnc5)cc4C2=O)cn3C)CC1` [Compound 255, N-methyl-1-{1-methyl-3-[(Z)-{3-oxo-5-[(pyridin-3-ylcarbamoyl)amino]-1-benzofuran-2(3H)-ylidene}methyl]-1H-pyrrolo[2,3-b]pyridin-4-yl}-N-(pyridin-4-ylmethyl)piperidine-4-carboxamide] gave a melting point of 125 to 135 °C. Moreover, the half-maximal inhibitory concentration (IC50) on mTOR worked out at 0.0093 µM. In addition, at PI3Kα, the IC50 worked out at 1.23 µM. Besides, the IC50 on PI3Kγ is 2.41 µM.
`CN(Cc1cccnc1)C(=O)C1CCN(c2ccnc3c2c(/C=C2\Oc4ccc(NC(=O)Nc5cccnc5)cc4C2=O)cn3C)CC1` [Compound 256, N-methyl-1-{1-methyl-3-[(Z)-{3-oxo-5-[(pyridin-3-ylcarbamoyl)amino]-1-benzofuran-2(3H)-ylidene}methyl]-1H-pyrrolo[2,3-b]pyridin-4-yl}-N-(pyridin-3-ylmethyl)piperidine-4-carboxamide] showed a melting point of 195 to 205 °C. For the same molecule, the IC50 on mTOR was found to be 0.0109 µM. The IC50 at PI3Kα stood at 1.02 µM. In addition, the IC50 on PI3Kγ was 1.61 µM.
The matching figures for `CN(Cc1ccccn1)C(=O)C1CCN(c2ccnc3c2c(/C=C2\Oc4ccc(NC(=O)Nc5cccnc5)cc4C2=O)cn3C)CC1` [Compound 257, N-methyl-1-{1-methyl-3-[(Z)-{3-oxo-5-[(pyridin-3-ylcarbamoyl)amino]-1-benzofuran-2(3H)-ylidene}methyl]-1H-pyrrolo[2,3-b]pyridin-4-yl}-N-(pyridin-2-ylmethyl)piperidine-4-carboxamide]: 187 to 189 °C, 0.0084 µM, 1.57 µM and 1.4 µM.
The corresponding values for `Cn1cc(/C=C2\Oc3ccc(NC(=O)Nc4cccnc4)cc3C2=O)c2c(N3CCC(C(=O)Nc4cccnc4)CC3)ccnc21` [Compound 262, 1-{1-methyl-3-[(Z)-{3-oxo-5-[(pyridin-3-ylcarbamoyl)amino]-1-benzofuran-2(3H)-ylidene}methyl]-1H-pyrrolo[2,3-b]pyridin-4-yl}-N-pyridin-3-ylpiperidine-4-carboxamide] are 180 to 190 °C (dec.), 0.0145 µM, 2.89 µM and 10.5 µM.
The corresponding values for `Cn1cc(/C=C2\Oc3ccc(NC(=O)Nc4cccnc4)cc3C2=O)c2c(N3CCC(C(=O)Nc4ccncc4)CC3)ccnc21` [Compound 263, 1-{1-methyl-3-[(Z)-{3-oxo-5-[(pyridin-3-ylcarbamoyl)amino]-1-benzofuran-2(3H)-ylidene}methyl]-1H-pyrrolo[2,3-b]pyridin-4-yl}-N-pyridin-4-ylpiperidine-4-carboxamide] are 230 to 235 °C (dec.), 0.025 µM, 15.5 µM and 8.21 µM.
With `Cn1cc(/C=C2\Oc3ccc(NC(=O)Nc4cccnc4)cc3C2=O)c2c(N3CCC(C(=O)N4CC5CC4CN5)CC3)ccnc21` (centres unmarked) [Compound 264, 1-[(2Z)-2-({4-[4-(2,5-diazabicyclo[2.2.1]hept-2-ylcarbonyl)piperidin-1-yl]-1-methyl-1H-pyrrolo[2,3-b]pyridin-3-yl}methylene)-3-oxo-2,3-dihydro-1-benzofuran-5-yl]-3-pyridin-3-ylurea], the melting point is 257 to 262 °C (dec.). Besides, at mTOR, the IC50 is 0.0165 µM. Moreover, at PI3Kα, the half-maximal inhibitory concentration (IC50) came to 6.36 µM. For the same molecule, the IC50 on PI3Kγ was found to be 0.378 µM.
